Key:
LOX = LOX fluorescent activity assay, in vivo (plasma of treated tumor-bearing mice); details: BAPN-treated and antibody-treated mice, terminal bleeds
From the text: LOX activity may be measured in a number of ways, using a soluble elastin or soluble collagen with labeled lysine as a substrate. Details of an activity assay are given in Royce et al., “Copper metabolism in mottled mouse mutants. The effect of copper therapy on lysyl oxidase activity in brindled (Mobr) mice,” Biochem J. 1982 Feb. 15; 202(2): 369-371. Especially preferred is a […] assay. One is described in Palamakumbura, et al. “A fluorometric assay for detection of lysyl oxidase enzyme activity in biological samples,” Anal Biochem. 2002 Jan. 15; 300(2):245-51. This method was used in the present work to assess LOX inhibition by BAPN and by anti-LOX antibody in cells in culture (using conditioned media) and in mice (using plasma), in a 96-well format.
LOX activity assay. The original method is described in Folgelgren, et al. J. Biol. Chem. 280:24690-24697 (2005). For the in vivo data, terminal bleeds were taken at the end of the experiment described above from untreated (control) mice, 2 and 3 wk BAPN mice, and antibody-treated mice. […] For the in vitro data, 50 μl of conditioned phenol-red-free medium was taken from cells incubated for 24 h under conditions of hypoxia. Samples were incubated overnight at 37° C. with different concentrations of BAPN or with purified LOX antibody at a concentration equivalent to 20 mg kg^−1 dose. Again, 0=fluorescent reading for 500 μM BAPN.

MDA231 and SiHa cells = experiment: In vitro invasion assay (Matrigel-coated inserts); format: cell-based; details: various human cancer cells; 24 hr oxygen deprived
Experimental: The first step of the metastatic process is cell invasion. […] The invasion of various human cancer cells in vitro was examined. […] Because LOX is a copper-dependent enzyme that can act intracellularly or extracellularly, cells were treated with bathocuprione disulphonate (BCS), a copper chelator that cannot permeate the cell membrane.
Invasive behavior was examined in vitro as previously described. Briefly, cells were serum deprived for 24 h then 2.5×10^4 cells were seeded in triplicate on both Matrigel-coated and uncoated inserts, moved to chambers containing 750 μl of FBS as a chemo-attractant and incubated at in normoxic or oxygen deprived conditions for 24 hr. Treatments with beta-aminoproprionitrile or bathocuprione disulphonate (Sigma) were performed 24 h prior to serum deprivation, and continued throughout the experiment.

[1] = system: fibronectin null mouse embryonic fibroblasts; experiment: In vitro invasion of fibronectin null cells; format: cell-based
Experimental: FIG. 8 is a graph (A) showing fibronectin null mouse embryonic fibroblasts subjected to in vitro invasion assays; untreated invasion was compared with that of cells transfected with LOX antisense oligos (Antisense) or incubated with BAPN, and (B) Adhesion of SiHa cells expressing DSRED to matrix was assessed over time.
A role for fibronectin (FN) was sought, because it was strongly associated with LOX expression in the breast cancer microarray data set that was analyzed (data not shown), is reported to regulate invasion, bind to integrins and interact with LOX, and is hypoxia induced. […] FAK phosphorylation could be induced in the cells expressing LOX shRNA by transfection with mature LOX (but not catalytically dead LOX), confirming a role for LOX in FAK phosphorylation. […] It is proposed here that this is because LOX increases fibrillar collagen, which is a ligand for b1 integrin. Other integrin pathways have been reported to mediate hypoxia-induced invasion.

FAK = FAK phosphorylation (phospho-FAK immunoblot); format: cell-based; details: cells expressing LOX shRNA transfected with mature LOX
From the text: Acquisition of motility is required before cells can migrate and invade. Invasive cell migration is a multi-step process^17 that commences with pseudopod protrusion at the leading edge driven by actin polymerization, resulting in focal adhesion formation and the activation of integrin and focal adhesion kinase (FAK). […] LOX protein expression extended along hairlike fibers protruding from the cell surface into the collagen matrix. […] Remodeling of the actin cytoskeleton with increased formation of stress fibers and focal adhesion in MDA231 control cells particularly in hypoxia was observed, which were not seen in cells expressing LOX shRNA.
A role for fibronectin (FN) was sought, because it was strongly associated with LOX expression in the breast cancer microarray data set that was analyzed (data not shown), is reported to regulate invasion, bind to integrins and interact with LOX, and is hypoxia induced. […] FAK phosphorylation could be induced in the cells expressing LOX shRNA by transfection with mature LOX (but not catalytically dead LOX), confirming a role for LOX in FAK phosphorylation. […]
Methods were performed as previously described. […] LOX was analyzed by using a rabbit polyclonal antibody raised against a synthetic peptide of human LOX (EDTSCDYGYHRRFA (SEQ ID NO:1); Open Biosystems). […] Quantification was performed with ImageQuant software.

[2] = system: A549 Non-Small Cell Lung Cancer Cells; experiment: A549 cells injected into the tail vein of mice; format: in vivo; details: sacrificed at Day 22; BAPN 100 mg/kg daily
Experimental: Human lung cancer A549 cells (ATCC CCL 185), known to be highly metastatic, were generated to stably express shRNA targeting LOX, as described in Methods. […] 1×10^6 cells were injected into the tail vein of mice (all cells go to the lung).
Lungs from the dead mice bearing control tumors were formalin fixed, paraffin embedded and H&E stained to quantify lung tumors. Most lungs contained no tumors but all mice had numerous lymph node metastases and one had liver metastases. N=5 mice bearing lung tumors expressing LOX shRNA were sacrificed at Day 22. […] In addition, n=5 mice bearing control tumors treated daily with BAPN (100 mg/kg) were sacrificed at Day 22. […] The number of lung tumors for the A549 control animals is low because it is believed that the tumors metastasized out of the lung.
Wild-type or LOX shRNA A549 Non-Small Cell Lung Cancer Cells were injected into the tail vein of immune deficient mice and analyzed for survival differences for a period of 181 days. 100% of animals with wild-type tumors died within 35 days compared with only 40% of animals stably transfected with a shRNA to LOX. Some animals were allowed two weeks to develop metastases, and then were left untreated or treated twice weekly with 2 mg/kg of the LOX antibody in Example 7. FIG. 12 is a Kaplan-Meyer plot showing survival of the animals.

RAW macrophages = experiment: In vitro invasion of RAW macrophages towards conditioned media; format: cell-based; details: BAPN at 200 μM
Experimental: To determine if LOX levels affected the migration or invasion of BMDCs, we performed in vitro invasion assays using CM as a chemo-attractant (FIG. 21B). The migration of BMDCs was increased by FN, regardless of LOX.
In vitro migration and invasion of RAW macrophage cells towards CM (as chemo-attractant) was measured in a transwell assay as described above. Fibronectin (cFN, Sigma) was used at 25 μg/ml and BAPN at 200 μM. Matrigel plugs were formed by mixing 60% Matrigel with 40% CM prior to subcutaneous injection of 500 μl of the mixture. Plugs were removed 7 days later, fixed in OCT, sectioned and stained for B-cells (B220). Cells in 10 fields of view were counted at least 50 μm away from the edge of the plug.

`N#CCCN` [BAPN, β-aminoproprionitrile] was tested, and the “LOX activity levels in the blood” value (LOX) was “Reduced LOX activity levels”, the “increased invasion under hypoxia or anoxia” value (MDA231 and SiHa cells) was “could be prevented” and the “invasion of FN-null cells” value [1] was “strongly inhibited invasion (similarly to BAPN addition)”. For the same compound, the “FAK phosphorylation induced by transfection with mature LOX” value (FAK) was “could be prevented”, the lung tumors [2] was “very few tumors” and the metastases [2] was “no metastases”. For the same compound, the “increased BMDC invasion with hypoxic Wt CM” value (RAW macrophages) was “could be prevented”.

Reference: patent US20070225242A1, “Method and composition for treating and preventing tumor metastasis in vivo” (The Board of Trustees of the Leland Stanford Junior …, priority 2005, published 2007)
